Results: ChEMBL document CHEMBL6121056, “Aculeapyridones A-Q, Pyranopyridone Alkaloids with Protective Effects against Acetaminophen-Induced Acute Liver Injury Discovered from a Coculture of Aspergillus aculeatinus WHUF0198 and a Penicillium sp” (2025)

How the values were obtained:
Type in all cases: functional, Mus musculus
AML12 [1] = experiment: Protection against acetaminophen-induced acute liver injury in AML12 cells at 10 uM incubated for 12 hrs by MTT assay relative to control
AML12 [2] = experiment: Protection against acetaminophen-induced acute liver injury in AML12 cells at 5 uM incubated for 12 hrs by MTT assay relative to control
AML12 [3] = experiment: Cytoprotective activity against acetaminophen-induced acute liver injury in AML12 cells assessed as reduction in ALT level at 5 uM measured after 12 hrs relative to control; parameters: scale not given: the % may be the effect or the level left

SMILES	Activity (AML12 [1])	Activity (AML12 [2])	Activity (AML12 [3])
CC[C@@H](C)/C=C/C=C/C=C(\C)[C@@H]1Oc2c(-c3ccc(O)cc3)c[nH]c(=O)c2C(=O)[C@H]1C	-50%	-10%	–
COn1ccc2c(c1=O)[C@@H](O)[C@@H](C)[C@H](/C(C)=C/C=C/C=C/[C@H](C)CC(=O)O)O2	50%	132%	115%
CC[C@@H](C)/C=C/C=C/C=C(\C)[C@@H]1Oc2cc[nH]c(=O)c2[C@@H](O)[C@H]1C	-6.5%	94%	29%
CO[C@@H]1c2c(cc[nH]c2=O)O[C@@H](/C(C)=C/C=C/C=C/[C@H](CO)CCO)[C@@H]1C	59%	20%	99%
CC[C@@H](/C=C/C=C/C=C(\C)[C@@H]1Oc2cc[nH]c(=O)c2[C@@H](OC)[C@H]1C)C(=O)O	-43%	164%	96%
CC[C@H](/C=C/C=C/C=C(\C)[C@@H]1Oc2cc[nH]c(=O)c2[C@@H](O)[C@H]1C)C(=O)O	56%	7%	118%
C\C(=C/C=C/C=C/C(C)CC(=O)O)[C@@H]1Oc2cc[nH]c(=O)c2[C@@H](O)C1C (stereo partly specified)	26%	66%	74%
CC[C@H](/C=C/C=C/C=C(\C)[C@@H]1Oc2ccn(OC)c(=O)c2[C@@H](O)[C@H]1C)CO	64%	61%	71%
CO[C@@H]1c2c(cc[nH]c2=O)O[C@@H](/C(C)=C/C=C/C=C/[C@H](C)CC(=O)O)[C@@H]1C	18%	120%	86%
CC[C@H](/C=C/C=C/C=C(\C)[C@@H]1Oc2ccn(OC)c(=O)c2[C@@H](O)[C@H]1C)C(=O)O	-14%	74%	52%
CC[C@H](/C=C/C=C/C=C(\C)[C@@H]1Oc2ccn(OC)c(=O)c2[C@@H](O)[C@H]1C)COC=O	21%	144%	79%
CC[C@H](/C=C/C=C/C=C(\C)[C@@H]1Oc2cc[nH]c(=O)c2[C@@H](O)[C@H]1C)CO	100%	17%	97%
CC[C@H](/C=C/C=C/C=C(\C)[C@@H]1Oc2cc[nH]c(=O)c2[C@@H](OC)[C@H]1C)COC=O	-32%	15%	–
CC[C@H](/C=C/C=C/C=C(\C)[C@@H]1Oc2cc[nH]c(=O)c2[C@@H](OC)[C@H]1C)CO	53%	125%	82%
CC[C@@H](C)/C=C/C=C/C=C(\C)[C@@H]1Oc2cc[nH]c(=O)c2[C@@H](OC)[C@H]1C	192%	30%	54%
CC(=O)N[C@@H](CS)C(=O)O [ACETYLCYSTEINE]	165%	150%	45%
